# From patent US8785503B2, “Biphenyl compound or pharmaceutically acceptable salt thereof, method for preparing novel biphenyl compound or pharmaceutically acceptable salt thereof, and pharmaceutical composition containing same as active ingredient for preventing or treating diabetes complications” (Korea Institute of Oriental Medicine, priority 2010, dated 2014)
# Legend:
# AGE formation = experiment: Inhibitory effect on AGE formation (BSA with fructose and glucose, fluorescence Ex 350 nm / Em 450 nm); type: biochemical, bovine; conditions: for Inhibitory effect / IC50: 7 days
# Protocol: To determine the inhibitory effect of the compound of Chemical Formula 1 according to the present invention on formation of AGE, which are an indicator of diabetic complications and indicator of treatment efficiency assessment, the following experiment was carried out.
# Bovine serum albumin (BSA) was used as a protein and the degree of binding to fructose and glucose was used as an indicator. Aminoguanidine, which is known to have very excellent inhibitory effect on AGE, was used as a positive control.
# Bovine serum albumin (hereinafter, referred to as BSA; Sigma, U.S.A.) was used as a protein source. BSA was added to 50 mM phosphate buffer (pH 7.4) to be a concentration of 10 mg/mL. A mixed solution of 0.2 M fructose and 0.2 M glucose was used as a sugar source. The mixed solution of fructose and glucose was added to the prepared BSA solution. 2.5, 5 and 10 μg/mL of the compound of Chemical Formula 1 obtained from Example 1 were prepared (All compounds were dissolved in DMSO and 15% tween 80 was added thereto. Total amount of DMSO was 0.2%). The compound was added to the mixed solution of BSA and sugars and the mixture was cultured at 37° C. for 7 days.
# At this time, 0.02% sodium azide and anticomycotics were added as an antibacterial agent and antifungal agents. A control was the cultured mixture of BSA and sugars. Blanks for the control and experimental group were those that were prepared but non-cultured. Aminoguanidine was used for a positive control, the indicator for comparing the effectiveness. All cultures were prepared in quadruplicate to avoid error as much as possible.
# After 7 days, the amount of AGE produced from each culture was analyzed and the result was shown. AGE has fluorescence, brown color, and a physicochemical property capable of cross-linking and has ligands which cell membrane receptors can recognize. The amount of AGE having those characteristics was measured by a microplate reader (Excitation: 350 nm, Emission: 450 nm) to analyze the inhibition degree of formation (Vinson, J. A. et al., J. Nutr. Biochem., 7: 659-663, 1996), and the inhibition rate of formation was calculated using the following Equation 1.
# Aminoguanidine was used for the positive control. Aminoguanidine was dissolved in distilled water and 37, 55.6. and 74 μg/mL of aminoguanidine were cultured for 7 days as described above. After 7 days, the amount of AGE produced from culture was measured by a microplate reader (Excitation: 350 nm, Emission: 450 nm).
# retinal angiogenesis = experiment: Oxygen induced retinopathy (OIR) mouse model: FITC-dextran, isolectin-B4 staining, retina Western blot; type: in vivo, mice (C58BL/6)
# Protocol: To determine the inhibitory effect of the compound of Chemical Formula 1 of the present invention on retinal angiogenesis, the following experiment was carried out. Experimental animals were mice born after crossbreeding 7-8-week-old C58BL/6. On 7th day after birth, mice (P7) were placed into an oxygen chamber and 75% of the oxygen concentration was maintained in the chamber for five days (P7-P11). 12-hour cyclic illumination was maintained in the animal room. Temperature was maintained at 24° C. Animals were allowed to access freely to feeds and drinking water. At an ambient atmosphere, the drug was intraperitoneally injected each day for five days (P12-P16). On 17th day after birth, 30 mg/kg of Zoletil (Zoletil 50, Virbac) and 10 mg/kg of Rompun (Bayer Korea) were mixed at a ratio of 3:2 and 10-fold diluted in physiological saline and 50 μL was intraperitoneally injected to anesthetize animals. After laparotomy, 100 μL of 50 mg/mL of FITC-dextran (Sigma, St. Louis, Mo., USA) dissolved in PBS was injected to a heart. When the heart stopped, eyes were removed. Retina was separated from one eye and stored at −70° C. The other eye was fixed using 4% paraformaldehyde for 10 min. After separation of retina, thin fixed retina slide was prepared and observed using a fluorescence microscope (BX51, Olympus, Japan). Retina was fixed in 4% paraformaldehyde for 3 hours, and washed with PBS, and then agitated in PBS containing triton X-100 and 1% bovine serum albumin for 3 hours. Retina was washed again and 1 mg/mL of isolectin-B4 (L2140, Sigma) was diluted in PBS to 1:50 and retina was agitated with isolectin-B4 at 4° C. for overnight. After washing the retina with PBS containing 0.05% Tween 20 for 2 hours, streptavidin-TRITC was diluted to 1:500 and allowed to react with retina at 37° C. for 4 hours. Then, retina was washed with PBS for 30 min and observed using a fluorescence microscope (BX51, Olympus, Japan). Retina stored at −70° C. was homogenized with homogenization buffer (pH 7.6). Protein quantification was carried out by Lowry's principle and SDS-PAGE electrophoresis was carried out for each 30 μg. Migrated proteins in a gel were immobilized onto a nitrocellulose membrane and transferred to the membrane at 100 V, 250 mA for 1.5 hours. Antibodies to be quantified were immunoabsorbed to the adsorbed proteins and color was developed using an enhanced-chemiluminescence (ECL) solution. Protein expression was determined by measuring the density with Scion image analysis program.
# [1] = tested on: diabetic retinopathy-induced retina; experiment: Diabetic retinopathy-induced (intravitreal BSA-AGE) rat model: FITC-dextran retinal vessels, retina Western blot; type: in vivo, Sprague Dawley (SD) white rats
# Protocol: To determine the therapeutic effect of the compound of the present invention on retina, to which diabetic retinopathy, one example of diabetic complications, was induced, the following experiment was carried out. Sprague Dawley (SD) white rats (6 weeks) were obtained from Daehan Biolink Co. and acclimated for 7 days to the animal room. SD rats were divided into normal group, diabetic group, experimental group, and control group. The animal room was maintained under the following conditions: temperature 23° C.; humidity 40-60%; and 12 h light-dark cycle. Feeds for experimental animals and drinking water were provided without limitation. All experiments were carried out in accordance with Standard Operation Procedures (SOP) by Institutional Animal Care and Use Committee (IACUC). SD rats were anesthetized by an intraperitoneal injection of 5 mg/mL of Zoletil and 5 mg/mL of Rompun. 20 mg/mL of BSA-AGE alone for normal group and diabetic group and both 20 mg/mL of BSA-AGE and a drug for experimental group and control group were injected via Hamilton syringes and needles to eyes. At this time, the needle was introduced into the sclera, 3 mm away from the corneal limbus, and after confirming that the end of the needle was located in the vitreous cavity, administration was carried out. After 24 hours, eyes were removed. The compound of Chemical Formula 1 obtained from Example 1 was used for the drug. A mixture of the same amount of Zoletil and Rompun was intraperitoneally injected to anesthetize animals. Hearts were obtained by opening abdominal cavity and thoracic cavity. 1 mL of fluorescent isothiocyanate dextran (FITC-dextran, Sigma, St. Louis, Mo., USA) which was prepared by dissolving […] of FITC-dextran in 1 mL of sterile physiological saline was injected into the left ventricle. After 10 minutes, eyes were removed and separated from eyecups. Left eyes were incised in four directions and placed onto a slide glass. After mounting, left eyes were observed by a fluorescent microscope. For right eyes, only retina was separated from the eye and rapidly frozen in liquid nitrogen and stored at −70° C. To prepare BSA-AGE, 30 mM glucose (Sigma, St. Louis, Mo., USA) and 20 mg/mL of BSA (Roche, Germany) were added to sodium phosphate buffer (100 mM, pH 7.4) and cultured at 37° C. for 50 days. After 50 days, BSA-AGE was injected into PD-10 column and the remaining glucose was removed by dialysis and only pure BSA-AGE was obtained. Purified BSA-AGE was aliquoted and stored at −70° C. to use. Retina stored at −70° C. was homogenized with homogenization buffer (pH 7.6). Protein quantification was carried out by Lowry's principle and SDS-PAGE electrophoresis was carried out for each […]. Migrated proteins in a gel were immobilized onto a nitrocellulose membrane and transferred to the membrane at 100 V, 250 mA for 1.5 hours. Antibodies to be quantified were immunoabsorbed to the adsorbed proteins and color was developed using an enhanced-chemiluminescence (ECL) solution. Protein expression was determined by measuring the density with Scion image analysis program.
# [2] = 100 mg/kg, intraperitoneal P12-P16
# [3] = across doses, intraperitoneal P12-P16
# [4] = across doses, vs. diabetic group
smiles,measurement,setting,value
"N=C(N)NN [Aminoguanidine, reference compound]",Inhibitory effect,AGE formation; 37 μg/mL,44.53 ± 2.33%
same,Inhibitory effect,AGE formation; 55.5 μg/mL,49.97 ± 0.59%
same,Inhibitory effect,AGE formation; 74 μg/mL,56.37 ± 0.67%
same,IC50,AGE formation,1060 ± 57.2 µM
COc1cc(O)cc(-c2ccc(O)c(O)c2)c1 [Compound of Chemical Formula 1],Inhibitory effect,AGE formation; 2.5 μg/mL,4.25 ± 5.38%
same,Inhibitory effect,AGE formation; 5 μg/mL,17.16 ± 5.86%
same,Inhibitory effect,AGE formation; 10 μg/mL,54.17 ± 6.02%
same,IC50,AGE formation,41 ± 3.78 µM
same,inhibitory effect on AGE formation relative to aminoguanidine,"AGE formation; ratio of IC50 values, greater than control",26 times
same,angiogenesis (isolectin-B4 staining),retinal angiogenesis; [2],significantly inhibited
same,avascular area (FITC-dextran),retinal angiogenesis; [2],significantly reduced
same,increase in length by vascular tortuosity,retinal angiogenesis; [2],reduced
same,"Changes in the angiogenic growth factor (retina, Western blot)","retinal angiogenesis; 100 mg/kg, p<0.05 vs. OIR",significant decrease
same,neovascular tufts (isolectin-B4 staining),retinal angiogenesis; [3],ameliorated in a dose-dependent manner
same,vascular tortuosity (FITC-dextran),retinal angiogenesis; [3],ameliorated in a dose-dependent manner
same,"Changes in the angiogenic growth factor (retina, Western blot)","retinal angiogenesis; across doses, vs. OIR group",dose-dependent decrease
same,"Changes in occludin (retina, Western blot)","[1]; 100 μM, p<0.05 vs. AGE-BSA",significant increase
same,"Changes in the angiogenic growth factor (retina, Western blot)","[1]; 100 μM, p<0.05 vs. AGE-BSA",significant decrease
same,"Changes in occludin (retina, Western blot)","[1]; 150 μM, p<0.05 vs. AGE-BSA",significant increase
same,"Changes in the angiogenic growth factor (retina, Western blot)","[1]; 150 μM, p<0.05 vs. AGE-BSA",significant decrease
same,"Changes in occludin (retina, Western blot)",[1]; [4],dose-dependent increase
same,"Changes in the angiogenic growth factor (retina, Western blot)",[1]; [4],dose-dependent decrease
